Experiments:
[1] = system: oligodendrocyte progenitors; test: Primary/secondary screening: oligodendrocyte progenitor morphology changes and Plp-EGFP fluorescence; assay type: cell-based, mouse
Experimental: Oligodendrocyte progenitors were generated from embryonic neural progenitors growing in cell aggregates known as neurospheres (Nphs). Nph were prepared from embryos at 14.5 days of gestation obtained from timed pregnant females of either wild type mice or the proteolipid protein-enhanced-green fluorescence protein (Plp-EGFP) transgenic mouse. In brief, after separation of meninges and cerebellum, cerebrum tissue was mechanically triturated with a 1 ml Gilson pipette until total tissue disaggregation was achieved, filtered through a 70 μm cell strainer (Fisher Scientific, Pittsburg, Pa.) and plated in 25 cm^2 plastic culture flasks (2 brains/flask). Nph proliferation media (NPM) was DMEM/F12, B27 neuronal supplement (Gibco, Baltimore, Md.) and 10 ng/ml EGF (Sigma, St. Louis, Mo.). After 48-72 hr, floating Nphs were passaged at a 1:3 ratio in the same medium every 3-4 days. To generate oligodendrocyte progenitors, single cells suspensions were obtained by chemical disgregation with the mouse NeuroCult dissociation kit (StemCell Technologies, Alberta, Canada). The single cell suspension was filtered through a 70 μm cell strainer and plated on 96-well poly-D-Lysine (PDL)-coated plates at a cell density of 1.5×10^4 cells/cm^2. Cells were maintained in NPM supplemented with 10 ng/ml PDGF/bFGF instead of EGF. Bipolar, oligodendrocyte progenitor cells were observed 24 hours after plating. […]
The small molecule library consists of handcrafted drug-like organic molecules with molecular weight in a range of 250-550, dissolved in DMSO at concentration of 5 mg/ml or […]. Their structure and >95% purity have been validated by NMR. […] Oligodendrocyte progenitor differentiation was scored using as 4 scale values as follows: 1: bipolar, undifferentiated; 2: bipolar to tripolar, initiated differentiation; 3: multibranched, differentiated cells; 4: multibranched, differentiated cells showing membranous structures (FIG. 1).
Differentiation induced by selected compounds was further validated by fluorescence microscopy in cells generated from our Plp-EGFP transgenic mouse. Increased fluorescence in treated oligodendrocyte progenitor was indicative of cell maturation and was again scored following the same scale. […] These were analyzed for cell toxicity assays by MTT were yellow 3-(4,5-Dimethylthiazol-2-yl)-2,5-diphenyltetrazolium bromide, a tetrazole (MTT) is reduced to purple formazan in the mitochondria of living cells, showing a solution color change measurable by OD620-590 (Data not shown). Further oligodendrocyte progenitor maturation in response to selected compounds was assessed by induction of myelin protein expression as determined by immunocytochemistry and western blot. […]

Akt = Akt activity in cell extracts of oligodendrocyte precursors (phosphorylation of Akt substrate GSKα/β); assay type: cell-based; conditions: 10 μM, 48 h
Description: Oligodendrocyte precursor differentiation requires the activation of a complex, highly controlled machinery that signals cells to stop migrating/proliferating and start extending processes and producing myelin components. A number of inducers and intracellular mediators of this process have been identified in vitro and in viva. […] Therefore, we studied whether our selected small molecules induced Akt signaling in oligodendrocyte precursors. We analyzed Akt activity in cell extracts of oligodendrocyte precursors treated with selected compounds (10 μM, 48 h), as determined by phosphorylation of Akt substrate GSKα/β.

[2] = system: oligodendrocyte progenitor cells; test: Immunocytochemistry for PLP/DM20 and MBP, count of differentiated cells; assay type: cell-based, mouse; conditions: Table 3, 10 μM, 48 hrs
Experimental: Immunodetection of oligodendrocyte and myelin markers was performed. In brief, Oligodendrocyte cells plated on PDL-coated dishes were initially fixed in 2% paraformaldehyde (PFA) for 10 min at room temperature (RT) and then 4% PFA for 15 min, washed three times with PBS and permeabilized with 0.1% Triton X100 for 10 min at RT. After blocking with 3% BSA in PBS for 60 min a RT, the cells were incubated with primary antibodies at the indicated concentrations overnight (ON) at 4° C. The cells were washed three times with cold PBS incubated with secondary antibodies for 45 min at RT, and washed again before mounting. Immunostaining of tissue sections prepared with a sliding microtome (30 μm) was performed. In brief, tris buffered saline (TBS) containing 100 nM Sodium fluoride (TBSS) was used the all dilutions and washes. For antigen retrieval, sections were washed 3 times in TBSS, incubated in 5% methanol and 3% H2O2 for 10 min, washed 2 times, and then incubated in 10% Triton X-100 for 20 min. Blocking of unspecific bonds was performed by incubating the tissue sections with 10% NGS for 1 hr. Primary antibodies were diluted in 3% BSA containing 0.02% Triton X-100 and sections were incubated overnight in this solution. The next day the sections were washed 3 times in TBSS, followed by 1 hr incubation in secondary antibodies (1:1000) at 4° C. After several washes, the sections were mounted using Vectashield (Vector Laboratories, Burlingame, Calif.). Visualization of immunostained cells and tissue was performed on a Leica DMR (Wetzlar, Germany) or a Leica SP5 confocal microscope.
(§1) The primary screening to select positive compounds was performed at a standard concentration of 10 μM with cell morphology analysis 48 hrs after treatment. Dose response curves at 48 hrs treatment time were performed to determine the minimum concentration compounds A, A-7 and B needed to induce cell maturation. We assessed oligodendrocyte differentiation by cell morphology changes, green fluorescence in cells generated from or Plp-EGFP transgenic mouse, immunostaining for myelin proteins and western blot for expression of the oligodendrocyte markers PLP/DM20 and 2′,3′, cyclic nucleotide 3′ phosphohydrolase (CNPase). EC50 values were also calculated based on results of western blot for myelin proteins and subsequent band densitometry analysis. Additionally, we followed cell differentiation induced over long time exposure to compounds A and B (7 days, 0.1-10 μM).
Compound A-7-induced oligodendrocyte progenitor maturation was also analyzed in comparison to control cells in immunostaining experiments to detect the myelin proteins MBP and PLP. Positive cells for these markers showing processes formation and membranous structures were counted versus total cells and counterstained with the nuclear dye Dapi after 48 hrs (Tables 3 and 4) and 7 days treatment with 0.1, 1 or 10 μM compound A-7 (FIG. 2, B).

[3] = system: oligodendrocyte progenitor cells; test: Western blot for myelin proteins PLP/DM20 and CNPase in treated oligodendrocyte progenitor cells; assay type: cell-based, mouse; conditions: Table 3, 10 μM, 48 hrs
Experimental: Oligodendrocyte progenitors were generated from embryonic neural progenitors growing in cell aggregates known as neurospheres (Nphs). Nph were prepared from embryos at 14.5 days of gestation obtained from timed pregnant females of either wild type mice or the proteolipid protein-enhanced-green fluorescence protein (Plp-EGFP) transgenic mouse. In brief, after separation of meninges and cerebellum, cerebrum tissue was mechanically triturated with a 1 ml Gilson pipette until total tissue disaggregation was achieved, filtered through a 70 μm cell strainer (Fisher Scientific, Pittsburg, Pa.) and plated in 25 cm^2 plastic culture flasks (2 brains/flask). Nph proliferation media (NPM) was DMEM/F12, B27 neuronal supplement (Gibco, Baltimore, Md.) and 10 ng/ml EGF (Sigma, St. Louis, Mo.). After 48-72 hr, floating Nphs were passaged at a 1:3 ratio in the same medium every 3-4 days. To generate oligodendrocyte progenitors, single cells suspensions were obtained by chemical disgregation with the mouse NeuroCult dissociation kit (StemCell Technologies, Alberta, Canada). The single cell suspension was filtered through a 70 μm cell strainer and plated on 96-well poly-D-Lysine (PDL)-coated plates at a cell density of 1.5×10^4 cells/cm^2. Cells were maintained in NPM supplemented with 10 ng/ml PDGF/bFGF instead of EGF. Bipolar, oligodendrocyte progenitor cells were observed 24 hours after plating. At the Moment of treatment to induce oligodendrocyte progenitor differentiation, the media was changed to OPC differentiation media containing NPM with a 1:10 dilution of PDGF/FGF.
For myelin protein analyses, cells were grown on 100 mm culture plates and after exposure to small molecules or controls were washed twice with ice-cold PBS. RIPA lysis buffer was added to the plates and the cells were scraped, collected and disrupted with a homogenizer on ice. Cell homogenates were then centrifuged at 6,000×g, 10 min, 4° C. and supernatants separated in a fresh tube. After adding Laemli loading buffer, proteins were denaturized at 70° C. for 10 mm and loaded in gradient gels (4-20, Criterion, BioRad, Calif.). Electroforetically separated proteins were electro-transferred to nitrocellulose membranes in a semi-dry apparatus and unspecific bonds were blocked with IRdye blocking solution for at least 1 hr at RT. After washing twice with TBS-T, primary antibodies were added and incubated over night at 4° C. Membranes were incubated with secondary, IRdye-infrared conjugated antibodies for 1 hr at RT and visualized on the Odyssey scanner.
as §1

Molecule: CC(=O)NC(=Cc1ccc(Cl)cc1)C(=O)N1CCOCC1 [D, N-[2-(4-chlorophenyl)-1-(4-morpholinylcarbonyl)vinyl]acetamide]
- induction of oligodendrocyte precursor maturation [1]: showed induction of oligodendrocyte precursor maturation

Molecule: Br.COc1ccc(C2=CSC3=NCCN23)cc1F [F, 3-(3-fluoro-4-methoxyphenyl)-5,6-dihydroimidazo[2,1-b][1,3]thiazole hydrobromide]
- induction of oligodendrocyte precursor maturation [1]: showed induction of oligodendrocyte precursor maturation
- Akt phosphorylation (Akt): clearly detected

Molecule: CCCS(=O)(=O)N1CCN(C(=O)COc2ccc(OC)cc2)CC1
- Differentiated Cells (IC, % of Control) [2]: 224.3 ± 66.3 n = 3; p <0.05 % of Control
- PLP/DM20 Expression (WB, % of Control) [3]: 143.0 ± 6.9 n = 2 % of Control

Molecule: CCS(=O)(=O)N1CCN(C(=O)COc2ccc(C)cc2)CC1
- Differentiated Cells (IC, % of Control) [2]: 207.5 ± 38.2 n = 3; p <0.05 % of Control
- PLP/DM20 Expression (WB, % of Control) [3]: 160.7 ± 8.2 n = 2 % of Control

Molecule: CCS(=O)(=O)N1CCN(C(=O)COc2ccccc2)CC1
- Differentiated Cells (IC, % of Control) [2]: 195 ± 10.9 n = 3; p <0.05 % of Control
- PLP/DM20 Expression (WB, % of Control) [3]: 148 ± 10.6 n = 2 % of Control

B1: CNTF: ciliary neurotrophic factor, neurotrophin used as positive control for cell differentiation in primary screening (protein, UniProt P26441 1-200, looked up)
Ciliary neurotrophic factor: MAFTEHSPLTPHRRDLCSRSIWLARKIRSDLTALTESYVKHQGLNKNINLDSADGMPVASTDQWSELTEAERLQENLQAYRTFHVLLARLLEDQQVHFTPTEGDFHQAIHTLLLQVAAFAYQIEELMILLEYKIPRNEADGMPINVGDGGLFEKKLWGLKVLQELSQWTVRSIHDLRFISSHQTGIPARGSHYIANNKKM
- oligodendrocyte progenitor morphological changes indicative of cell maturation ([1]; positive control, 10 ng/ml, 48 hrs): marked oligodendrocyte progenitor morphological changes

From patent US20120172375A1, “COMPOUNDS AND METHODS OF PROMOTING OLIGODENDROCYTE PRECURSOR DIFFERENTIATION” (priority 2008, published 2012)
